The supplement of paper PMC8882468

Experiments:
Assay in all cases: CTG-3D luminescence at 96 h relative to day-0 seeding control (ratio to day 0); higher = more growth / less cytotoxicity; PDxO 3D drug screen, 96 h, CTG-3D normalised to day-0 seeding control.
MDA-MB-231 = tested on: MDA-MB-231
HCI-005.E2 = tested on: HCI-005.E2 (organoid from a breast cancer xenograft with a HER2-positive history)
HCI-016 = tested on: HCI-016 (organoid from a triple-negative breast cancer xenograft)
HCI-008 = tested on: HCI-008 (organoid from a HER2-enriched breast cancer xenograft)

NC(=O)c1cccc2cn(-c3ccc([C@@H]4CCCNC4)cc3)nc12 [niraparib]
CTG-3D luminescence at 96 h
Conditions	12.5 pM	0.00025 µM	0.005 µM	0.1 µM	1 µM	10 µM	100 µM	625 fM
HCI-005.E2	1.22	1.61	1.3	1.62	1.51	1.05	-0.00126	1.35
MDA-MB-231	4.51	4.46	4.51	4.46	4.41	3.96	0.00282	4.58

CTG-3D luminescence at 96 h
Conditions	12.5 pM	0.00025 µM	0.005 µM	0.1 µM	1 µM	10 µM	100 µM	625 fM
HCI-008, days in culture: 228	1.87	1.97	1.45	1.55	1.34	0.828	0.00065	1.72
HCI-008, days in culture: 244	1.42	1.98	1.91	2.31	1.77	1.17	-0.000168	2.42
HCI-016, days in culture: 153	2.7	1.98	2.84	1.82	0.989	0.444	-0.00489	2.67
HCI-016, days in culture: 172	2.42	2.33	2.02	1.56	1.36	0.272	-0.00828	1.66
HCI-016, days in culture: 190	1.64	1.64	2.08	1.58	0.974	0.189	-0.105	1.59
HCI-016, days in culture: 199	2.02	2.05	1.96	1.54	0.655	0.118	-0.0141	2.02
